According to patent US20230348454A1, “COMPOUNDS AS MODULATORS OF BIS-PHOSPHOGLYCERATE MUTASE FOR THE TREATMENT OF SICKLE CELL DISEASE” (Genzyme Corporation, priority 2020, published 2023):

The molecules below were run against T1, hBPGM (Homo sapiens, UniProt P07738) (assay: BPGM synthase assay). Settings: Table 3; read-out: hBPGM Synthase IC50.
T1 sequence (P07738 1-259): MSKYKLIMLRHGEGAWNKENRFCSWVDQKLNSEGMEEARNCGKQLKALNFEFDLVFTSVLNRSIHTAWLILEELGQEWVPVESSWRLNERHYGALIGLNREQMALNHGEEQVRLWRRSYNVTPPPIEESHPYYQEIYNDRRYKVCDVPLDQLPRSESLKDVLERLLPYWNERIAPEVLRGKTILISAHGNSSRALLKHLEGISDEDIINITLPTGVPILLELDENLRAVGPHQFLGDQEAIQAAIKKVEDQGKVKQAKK
Format: biochemical
Procedure: The following materials were used in this assay: deionized water; Bisphosphoglycerate mutase (BPGM; Standard Buffer: 50 mM Tris, 0.01% Tween 20, pH 7.4); BPGM Reaction Buffer (50 mM Tris, 0.01% Tween 20, 3.23 mM KH2PO4, pH 7.4); dithiothreitol (DTT; Stock solution: 100 mM in Standard Buffer); 384-Well Black Assay Plate (Corning, P/N 3575); DMSO; BPGM Stock Solution (500 nM in BPGM Standard Buffer); Glyceraldehyde 3-phosphate dehydrogenase (GAPDH; Stock Solution: 40 U/mL in 20 mM Tris-HCL Buffer with 20% Glycerol, 1 mM EDTA, 1 mM DTT); Glyceraldehyde 3-phosphate (GAP; Stock Solution: 20 mM in BPGM Standard Buffer); 3-PG Stock Solution (500 μM in BPGM Standard Buffer); Nicotinamide adenine dinucleotide (NAD; Stock Solution: 50 mM in BPGM Standard Buffer); Koningic Acid (1 mM Stock in DMSO); Resazurin Stock Solution (10 mM in DMSO); Diaphorase Stock Solution (40 U/mL in BPGM Standard Buffer); DTT Reaction Buffer (1 mM DTT in BPGM Reaction Buffer); Enzyme Solution (5 nM BPGM, 0.4 U/mL GAPDH in DTT Reaction Buffer); GAPDH Solution (0.4 U/mL GAPDH in DTT Reaction Buffer); Substrate Solution (2 mM NAD, 20 μM 3PG, 800 μM GAP in DTT Reaction Buffer); and Resazurin Solution (5 U/mL Diaphorase, 500 μM Resazurin in BPGM Standard Buffer).
To the assay plate was added Enzyme Solution (20 uL) to columns 2-22 and 24 of the assay plate. To columns 1 and 23 was added GAPDH Solution (20 uL). A separate compound plate was prepared at the desired concentrations and all wells were normalized with 5% DMSO. The compound plate was incubated for 30 minutes at RT. Next, the substrate solution (20 μL) was dispensed to all reaction wells and the plate was incubated for 60 minutes at RT. Koningic acid (1 μL) was added and the plate was incubated for 10 minutes at RT. During this time period, the NADH fluorescence was read at ex: 360/em: 460. Next, Resazurin Solution (10 μL) was added to all reaction wells and the plate was incubated for 30 minutes at RT. The resorufin fluorescence was then read at ex:544/em:590.

Row | IC50 [nM] | Compound
1 | 256 | Cc1nc(COc2ncccn2)sc1-c1cccc(-c2cc(F)c(O)c(C#N)c2)n1 [compound 12]

Same assay, conditions: Table 6; read-out: huBPGM: synthase Enzyme IC50

Row | IC50 [nM] | Compound
2 | 1300 | Cc1nc(COCC(C)(C)C)sc1-c1cccc(-c2cc(F)c3nn[nH]c3c2F)n1 [Example 234]
3 | > 99000 | Cc1nc(COc2ncccn2)sc1-c1cccc(-c2cc(F)c3nnn(C)c3c2)n1 [Example 150]
4 | 55 | Cc1nc(COC(C)C(=O)N(C)C)sc1-c1cccc(-c2cc(F)c3nn[nH]c3c2F)n1 (stereo not shown) [Example 60]
5 | 290 | Cc1nc(COc2ncccn2)sc1-c1ccnc(-c2cc(F)c(O)c(F)c2F)c1 [Example 57]
6 | 410 | Cc1nc(COCC(C)(C)O)sc1-c1cccc(-c2cc(F)c(O)c(F)c2F)n1 [Example 218]
7 | > 25000 | Cc1nc(C)c(CCOc2cc(F)c3nn[nH]c3c2F)s1 [Example 222]
8 | 2900 | Cc1nc(C)c(-c2csc(-c3cc(F)c(O)c(F)c3F)n2)s1 [Example 119]
9 | 280 | Cc1nc(CNc2ncccn2)sc1-c1csc(-c2cc(F)c3[nH]nnc3c2F)n1 [Example 51]
10 | 440 | Cc1nc(COC(=O)N2CCC(O)C2)sc1-c1csc(-c2cc(F)c3[nH]nnc3c2F)n1 (stereo not shown) [Example 75]
11 | 13000 | Cc1nc(C)c(-c2cnn(-c3cc(F)c4[nH]nnc4c3F)c2)s1 [Example 37]

Continued, molecule first:

Row | Compound | IC50 [nM]
12 | CNCc1nc(C)c(-c2cccc(-c3cc(F)c4nn[nH]c4c3F)n2)s1 [Example 63] | 1400
13 | Cc1nc(COc2ncccn2)sc1-c1cccc(-c2cc(O)c(C#N)c(F)c2)n1 [Example 74] | 290
14 | Cc1nc(COc2ncccn2)sc1-c1cccc(-c2ccc3[nH]c(=O)oc3c2)n1 [Example 117] | > 25000
15 | COC(=O)NCc1nc(C)c(-c2csc(-c3cc(O)c(S(N)(=O)=O)cc3F)n2)s1 [Example 202] | > 25000
16 | Cc1nc(CNc2ncc(C(F)(F)F)cn2)sc1-c1csc(-c2cc(F)c(O)c(F)c2F)n1 [Example 84] | > 25000
17 | Cc1nc(COCC(=O)N2CCN(C)CC2)sc1-c1csc(-c2cc(F)c(O)c(F)c2F)n1 [Example 123] | 1600
18 | Cc1nc(COc2ncccn2)sc1-c1nc(-c2cc(O)c(C#N)c(F)c2)cs1 [Example 71] | 300
19 | Cc1nc(C)c(-c2csc(-c3cc(F)c4[nH]nnc4c3)n2)s1 [Example 114] | 1200
20 | CC(=O)N(C)Cc1nc(C)c(-c2cccc(-c3cc(F)c4nn[nH]c4c3F)n2)s1 [Example 65] | 280
21 | Cc1nc(COC(=O)N2CCC(O)CC2)sc1-c1cccc(-c2cc(F)c3nn[nH]c3c2F)n1 [Example 47] | 25
22 | Cc1nc(COCC(C)(C)O)sc1-c1cccc(-c2cc(F)c3nn[nH]c3c2)n1 [Example 219] | 58
23 | Cc1nc(COc2ncccn2)sc1-c1cccc(-c2ccc(C#N)c(O)c2F)n1 [Example 105] | 220
24 | Cc1nc(COC(=O)N2CCC(C)(O)C2)sc1-c1cccc(-c2cc(F)c3[nH]nnc3c2F)n1 (stereo not shown) [Example 31] | 35
25 | COC(=O)NCc1nc(C)c(-c2csc(-c3cc(F)c4[nH]nnc4c3F)n2)s1 [Example 67] | 50
26 | Cc1nc(COc2ncccn2)sc1-c1csc(-c2cc(F)c(O)c(F)c2F)n1 [Example 70] | 200
27 | Cc1nc(C)c(-c2csc(-c3cc(O)c(NS(=O)(=O)c4ccccc4)cc3F)n2)s1 [Example 180] | > 25000
28 | Cc1nc(CN/C(=N/C#N)N(C)C)sc1-c1cccc(-c2cc(F)c3nn[nH]c3c2F)n1 [Example 45] | 48
29 | Cc1nc(CNC(=O)C2CCN(C)CC2)sc1-c1csc(-c2cc(F)c3[nH]nnc3c2)n1 [Example 182] | 1900
30 | Cc1nc(COC(=O)N2CCC(O)C2)sc1-c1csc(-c2cc(F)c(O)c(F)c2F)n1 (stereo not shown) [Example 79] | 2400
31 | COc1c(F)cc(-c2cccc(-c3sc(COc4ncccn4)nc3C)n2)c(F)c1C#N [Example 228] | > 25000
32 | Cc1nc(COc2ncccn2)sc1-c1cccc(-c2cc(F)c(O)c(C#N)c2)n1 [compound 12] | 260
33 | Cc1nc(COc2ccccn2)sc1-c1csc(-c2cc(F)c3[nH]nnc3c2F)n1 [Example 82] | 3600
34 | Cc1nc(CNC(=O)C2CCN(C)CC2)sc1-c1csc(-c2cc(F)c(O)c(F)c2F)n1 [Example 93] | 9000
